Measurements as given in publication PMC9297976 (Journal of Applied Toxicology, 2021).

How the values were obtained:
medaka Esr1 (mEsr1) [1] = molecular target: T1, medaka Esr1 (mEsr1) (Oryzias latipes, UniProt P50241); assay: Medaka Esr1 reporter gene assay, antagonist assay; format: cell-based, Japanese medaka (Oryzias latipes); conditions: E2 spiked at 1.0 nM (B); MAC = 1.0 × 10^−5 M
T1 sequence (P50241 1-620): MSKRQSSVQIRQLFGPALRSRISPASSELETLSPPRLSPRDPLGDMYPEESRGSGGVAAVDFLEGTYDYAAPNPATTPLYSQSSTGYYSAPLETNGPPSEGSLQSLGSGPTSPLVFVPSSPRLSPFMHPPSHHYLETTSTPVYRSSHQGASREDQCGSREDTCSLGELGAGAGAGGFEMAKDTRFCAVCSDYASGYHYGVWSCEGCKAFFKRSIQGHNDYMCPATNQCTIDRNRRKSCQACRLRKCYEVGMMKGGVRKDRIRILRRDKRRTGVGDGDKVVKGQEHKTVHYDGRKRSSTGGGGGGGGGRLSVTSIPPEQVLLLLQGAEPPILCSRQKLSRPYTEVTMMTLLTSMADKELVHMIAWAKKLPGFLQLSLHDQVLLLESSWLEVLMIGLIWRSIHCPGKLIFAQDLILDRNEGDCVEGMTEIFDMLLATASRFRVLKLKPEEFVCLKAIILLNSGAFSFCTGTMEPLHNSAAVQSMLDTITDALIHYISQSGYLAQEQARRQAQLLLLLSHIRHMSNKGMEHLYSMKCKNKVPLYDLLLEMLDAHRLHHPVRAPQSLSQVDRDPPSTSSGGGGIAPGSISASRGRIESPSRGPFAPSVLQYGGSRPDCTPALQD

medaka ARβ (mArβ) [2] = molecular target: T2, medaka ARβ (mArβ) (Oryzias latipes, UniProt D1MV73); assay: Medaka ARβ reporter gene assay, agonist assay; format: cell-based, Japanese medaka (Oryzias latipes); conditions: MAC = 1.0 × 10^−5 M
T2 sequence (D1MV73 1-744): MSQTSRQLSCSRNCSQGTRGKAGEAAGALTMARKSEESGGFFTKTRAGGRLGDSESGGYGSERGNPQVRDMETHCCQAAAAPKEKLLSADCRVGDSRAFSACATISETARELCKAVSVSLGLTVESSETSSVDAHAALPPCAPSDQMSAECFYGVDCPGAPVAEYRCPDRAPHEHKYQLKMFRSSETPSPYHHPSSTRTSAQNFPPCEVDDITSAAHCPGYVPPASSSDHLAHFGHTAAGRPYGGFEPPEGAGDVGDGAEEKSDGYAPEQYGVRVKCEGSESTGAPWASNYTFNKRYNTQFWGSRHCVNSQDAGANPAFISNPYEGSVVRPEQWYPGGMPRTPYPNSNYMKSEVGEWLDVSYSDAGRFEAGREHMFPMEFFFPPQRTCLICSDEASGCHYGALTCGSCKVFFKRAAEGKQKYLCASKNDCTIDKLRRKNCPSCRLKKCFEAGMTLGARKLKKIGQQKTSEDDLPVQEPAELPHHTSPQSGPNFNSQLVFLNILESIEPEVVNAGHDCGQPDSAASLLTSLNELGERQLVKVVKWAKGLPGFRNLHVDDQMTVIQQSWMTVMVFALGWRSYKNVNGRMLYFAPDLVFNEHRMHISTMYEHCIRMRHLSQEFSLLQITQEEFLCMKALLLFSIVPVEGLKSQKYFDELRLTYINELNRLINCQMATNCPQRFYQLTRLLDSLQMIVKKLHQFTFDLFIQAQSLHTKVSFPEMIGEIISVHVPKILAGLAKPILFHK

[3] = test system: Japanese medaka (Oryzias latipes); assay: Fish Short‐Term Reproduction Assay; format: in vivo; conditions: for Fertility rate / Hepatic VTG, female / Hepatic VTG, male / Mortality / Mortality, number of dead fish / Number of fertilized eggs (per female per day) / Number of total eggs (per female per day) / SSC female (joint plates with papillary processes) / SSC male (joint plates with papillary processes): 21 d; for GSI Female / GSI Male / HSI Female / HSI Male / Length Female / Length Male / Weight Female / Weight Male: completion of exposure
medaka ARβ (mArβ) [4] = molecular target: T2, medaka ARβ (mArβ); assay: Medaka ARβ reporter gene assay, antagonist assay; format: cell-based, Japanese medaka (Oryzias latipes); conditions: 11‐KT spiked at 50 nM (D); MAC = 1.0 × 10^−5 M
medaka Esr1 (mEsr1) [5] = molecular target: T1, medaka Esr1 (mEsr1); assay: cell-based; parameters: species or system Japanese medaka (Oryzias latipes)
[6] = measured concentration 184 μg/L
[7] = measured concentration 836 μg/L

With `CC(C)COC(=O)c1ccccc1C(=O)OCC(C)C` [DIBP, Diisobutyl phthalate] the Antagonistic activity (medaka Esr1 (mEsr1) [1]) was “NE (MAC = 1.0 × 10^−5 M)^(B)”, the Agonistic activity (medaka ARβ (mArβ) [2]) was “NE (MAC = 1.0 × 10^−5 M)” and the Fertility rate ([3]; 35 μg/L measured) was 97 ± 4.8%. For the same compound, the “Hepatic VTG, female” value ([3]; 35 μg/L measured) was 596 ± 144 ng/mg‐liver, the “Hepatic VTG, male” value ([3]; 35 μg/L measured) was 0.3 ± 0.4 ng/mg‐liver and the Mortality ([3]; 35 μg/L measured) was 0.0%. For the same compound, the “Mortality, number of dead fish” value ([3]; 35 μg/L measured) was 0, the “Number of fertilized eggs (per female per day)” value ([3]; 35 μg/L measured) was 23 ± 6.6 and the “Number of total eggs (per female per day)” value ([3]; 35 μg/L measured) was 24 ± 7.0. For the same compound, the “SSC female (joint plates with papillary processes)” value (“SSC female” below) ([3]; 35 μg/L measured) was 0 ± 0, the “SSC male (joint plates with papillary processes)” value (from here on “SSC male”) ([3]; 35 μg/L measured) was 96 ± 11 and the Fertility rate ([3]; 184 μg/L measured) was 97 ± 3.9%. For the same compound, the “Hepatic VTG, male” value ([3]; 184 μg/L measured) was 0.2 ± 0.1 ng/mg‐liver, the Mortality ([3]; 184 μg/L measured) was 0.0% and the “Mortality, number of dead fish” value ([3]; 184 μg/L measured) was 0. For the same compound, the “Number of fertilized eggs (per female per day)” value ([3]; 184 μg/L measured) was 23 ± 6.9, the “Number of total eggs (per female per day)” value ([3]; 184 μg/L measured) was 24 ± 7.2 and the “SSC female” value ([3]; 184 μg/L measured) was 0 ± 0. The “SSC male” value ([3]; 184 μg/L measured) was 96 ± 10, the “Hepatic VTG, female” value ([3]; 184 μg/L measured, sig. ↓ vs control) was 404 ± 85 ng/mg‐liver and the Fertility rate ([3]; 836 μg/L measured) was 96 ± 5.4%. The “Hepatic VTG, male” value ([3]; 836 μg/L measured) was 2.2 ± 3.2 ng/mg‐liver, the Mortality ([3]; 836 μg/L measured) was 0.0% and the “Mortality, number of dead fish” value ([3]; 836 μg/L measured) was 0. The “Number of fertilized eggs (per female per day)” value ([3]; 836 μg/L measured) was 24 ± 5.9, the “Number of total eggs (per female per day)” value ([3]; 836 μg/L measured) was 25 ± 5.8 and the “SSC female” value ([3]; 836 μg/L measured) was 0 ± 0. For the same compound, the “SSC male” value ([3]; 836 μg/L measured) was 97 ± 18, the “Hepatic VTG, female” value ([3]; 836 μg/L measured, sig. ↓ vs control) was 421 ± 73 ng/mg‐liver and the LOECREPRO ([3]; LOEC on reproduction (fecundity and/or fertility)) was “ND (>836) μg/L”. For the same compound, the minimal effective concentration ([3]; Oryzias latipes, 504 h, read-out: LOECmVTG) was over 0.836 µg/mL, the LOECTOX ([3]; lowest observed effect concentration on mortality) was “ND (>836) μg/L” and the “GSI Female” value ([3]; measured concentration 35 μg/L) was 13.3 ± 2.3%. For the same compound, the “GSI Male” value ([3]; measured concentration 35 μg/L) was 1.2 ± 0.2%, the “HSI Female” value ([3]; measured concentration 35 μg/L) was 6.3 ± 1.60% and the “HSI Male” value ([3]; measured concentration 35 μg/L) was 2.7 ± 0.40%. The “Length Female” value ([3]; measured concentration 35 μg/L) was 33.6 ± 1.5 mm, the “Length Male” value ([3]; measured concentration 35 μg/L) was 31.9 ± 1.2 mm and the “Weight Female” value ([3]; measured concentration 35 μg/L) was 446 ± 48 mg. For the same compound, the “Weight Male” value ([3]; measured concentration 35 μg/L) was 335 ± 39 mg, the “GSI Female” value [3, 6] was 13.6 ± 1.9% and the “GSI Male” value [3, 6] was 1.0 ± 0.3%. The “HSI Female” value [3, 6] was 6.3 ± 0.90%, the “HSI Male” value [3, 6] was 3.1 ± 0.40% and the “Length Female” value [3, 6] was 32.6 ± 1.5 mm. For the same compound, the “Length Male” value [3, 6] was 31.8 ± 1.4 mm, the “Weight Female” value [3, 6] was 405 ± 52 mg and the “Weight Male” value [3, 6] was 329 ± 55 mg. The “GSI Female” value [3, 7] was 12.0 ± 2.0%, the “GSI Male” value [3, 7] was 1.2 ± 0.4% and the “HSI Female” value [3, 7] was 5.9 ± 1.30%. The “HSI Male” value [3, 7] was 3.4 ± 0.40%, the “Length Female” value [3, 7] was 32.6 ± 1.4 mm and the “Length Male” value [3, 7] was 32.4 ± 1.7 mm. For the same compound, the “Weight Female” value [3, 7] was 413 ± 61 mg, the “Weight Male” value [3, 7] was 348 ± 62 mg and the Antagonistic activity (medaka ARβ (mArβ) [4]) was “NE (MAC = 1.0 × 10^−5 M)^(D)”. For the same compound, the “Agonistic activity PC10” value (medaka Esr1 (mEsr1) [5]) was “PC10 = 3.0 × 10^−6 M” and the “In vitro positive: Esr” value (medaka Esr1 (mEsr1) [5]; mode of action in which EC50 or PC10 was obtained in RGA) was “Esr”.
